Laboratory results: patent US20180362487A1, “STEREOISOMER OF BROMADIOLONE, COMPOSITION AND RODENTICIDAL BAIT COMPRISING SAME, AND PROCESS FOR CONTROLLING TARGET RODENT PESTS” (priority 2015, published 2018)

Format: in vivo, "Sprague-Dawley" SD rats
Details: per os tube feeding, about 13 mg bromadiolone per kg (56% D1,2 / 44% D3,4), liver on D1, D3, D7, male and female rats, FIG. 2
Description: Separation of the configurational stereoisomers of bromadiolone is performed by high-pressure liquid chromatography (HPLC) on a LUX® Cellulose-1 chiral column (Phenomenex, Le Pecq, France) containing a chiral stationary phase constituted of particles of cellulose tris(3,5-dimethylphenyl carbamate), said particles having a mean size of 3 μm and having a mean pore size of 1000 Å. A mixture formed from acetonitrile (A) and water comprising 0.1% by volume of formic acid (B), with an A/B volume ratio of 80/20 and with a flow rate of 0.25 mL/minute in the chromatography column, is used as mobile phase. The concentration of the composition to be analysed is 1 μg of bromadiolone per millilitre of acetonitrile and the volume injected onto the column is 1 μL. Detection is performed by tandem mass spectrometry (MS/MS) in negative electrospray ionization (ESI) mode. The temperature of the nebulizer gas is 350° C. and its flow rate is 8 L/minute. The pressure of the nebulizer gas is brought to 2700 hPa. In particular, the MRM (“Multiple Reaction Monitoring”) transitions m/z 525.1→250.1 and m/z 525.1→181, corresponding to bromadiolone, are detected.
About 0.525 g (±0.025 g) of rat liver is weighed out accurately and placed in a 50 mL polypropylene tube. 10 mL of acetone are added and the suspension is homogenized using an Ultra-Turrax® homogenizer/disperser for a time of about 30 seconds. […]

With O=c1oc2ccccc2c(O)c1C(CC(O)c1ccc(-c2ccc(Br)cc2)cc1)c1ccccc1 (single isomer, unassigned) [diastereoisomer D1,2] the “persistence in the liver of the rats (hepatic concentration of the diastereoisomers)” value was “longer persistence in the liver of the rats than the persistence of said diastereoisomer D3,4”.
For O=c1oc2ccccc2c(O)c1C(CC(O)c1ccc(-c2ccc(Br)cc2)cc1)c1ccccc1 (single isomer, unassigned) [diastereoisomer D3,4], the “persistence in the liver of the rats (hepatic concentration of the diastereoisomers)” value was “less persistent in the liver of target rodents”.
